Tested on: RPtag (large)
Assay: Association/dissociation kinetics of RPtag (small) peptides with RPtag (large) by fluorescence anisotropy
Format: binding, Thermoanaerobacter tengcongensis
Conditions: for koff: LS dissociation, unlabeled competitor peptide; for kon (M^−1 min^−1 ) (×10^7): S*-LS transition, calculated from measured koff and Kd
Protocol: Panel a depicts representative association rate kinetics traces varying native RPtag small. Rhodamine labeled RPtag small at the indicated concentration was incubated with unlabeled RPtag large and the association measured by fluorescence anisotropy. L-S complex concentration was calculated by the equation (r−rmin)/(rmax−rmin)*[S] where r is the measured anisotropy, rmin is the anisotropy in the absence of any RPtag large, rmax is the anisotropy measured in the presence of at saturating RPtag large, and [S] is the total concentration of RPtag small used in the experiment. […] Dashed cyan lines are simulations of the mechanism shown in f using the rate constants detailed herein. The concentrations in the simulations were multiplied by a correction factor of 0.925, which is well within the 90% purity specification of the purchased peptide.
LS complex was performed by incubating 1000 nM RPtag large with the indicated concentrations of rhodamine labeled RPtag small. At the start of the experiment, 0.1 mM unlabeled native RPtag small was added and fluorescence anisotropy monitored. Data processing was done as in panel a, except the red fits were to the single exponential decay equation y=y0+A*exp(−b*t). As expected, the initial dissociation rates were linear with respect to the LS complex.
Fitting to a line yields a rate constant (koff)=0.0091 min^−1 (FIG. 9 panel e). In good agreement, when the kinetics are fit with a first order rate law, a rate constant of 0.012±0.002 min^−1 (n=15) was observed. […] Panel e is a graph of the initial rates of the traces represented in d. Slope of the fit line is 0.0091 min^−1. Data are mean±SE (n=3).
The library of mutant RPtag(small) peptides, described above, was next analyzed to measure off rates (koff). The on rate was also calculated from measured koff and Kd (S*-LS transition), except instead of using unlabeled native peptide as the competitor, we used unlabeled Nd2,P5A,E18A (the tightest binding RPtag(small) peptide identified). […] However, there were notable exceptions. […] This indicates, without wishing to be limited, that P5 may constrain the structure of the peptide. The increased flexibility imparted to the peptide by the P5A mutation may decrease the energy barrier required for binding/unbinding.

Sequence of RPtag (large) (as listed by the source): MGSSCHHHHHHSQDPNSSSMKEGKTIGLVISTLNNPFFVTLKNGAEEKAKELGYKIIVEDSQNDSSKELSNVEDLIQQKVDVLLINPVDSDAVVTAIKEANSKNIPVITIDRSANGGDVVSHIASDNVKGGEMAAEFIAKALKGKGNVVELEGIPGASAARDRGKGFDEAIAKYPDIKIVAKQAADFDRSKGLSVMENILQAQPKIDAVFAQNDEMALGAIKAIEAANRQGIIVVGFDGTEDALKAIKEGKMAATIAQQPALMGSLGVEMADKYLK

Substance | koff | kon (M^−1 min^−1 ) (×10^7)
AELKLITKENVQ [Nd9] | 0.00667 ± 0.00067 s⁻¹ | 8.2 ± 0.9 ×10^7 M^−1 min^−1
AIANFIPAELKLITKENVQ [Nd2, k3a, p5a] | 0.00015 ± 6.7e-06 s⁻¹ | 
EKIPNFIPAELKLITKENVQ [Nd1] | 0.000147 ± 1.7e-06 s⁻¹ | 3.4 ± 0.1 ×10^7 M^−1 min^−1
ELKLIT [Nd10, Cd5] | >0.033 s⁻¹ | 
ELKLITKA [Nd10, Cd3, e18a] | >0.033 s⁻¹ | 
ELKLITKE [Nd10, Cd3] | >0.033 s⁻¹ | 
ELKLITKENVQ [Nd10] | 0.00417 ± 0.00067 s⁻¹ | 4.3 ± 0.7 ×10^7 M^−1 min^−1
FIPAELKLITKA [Nd6, Cd3, e18a] | >0.033 s⁻¹ | 
FIPAELKLITKE [Nd6, Cd3] | >0.033 s⁻¹ | 
FIPAELKLITKENVQ [Nd6] | 0.00108 ± 5e-05 s⁻¹ | 12 ± 1 ×10^7 M^−1 min^−1
GEAIPNFIPAELKLITKENVQ [k3a] | 8.83e-05 ± 1.2e-05 s⁻¹ | 1.1 ± 0.1 ×10^7 M^−1 min^−1
GEKAPNFIPAELKLITKENVQ [i4a] | 0.0001 ± 3.3e-06 s⁻¹ | 
GEKIANFIPAELKLITKENVQ [p5a] | 0.0004 ± 3.3e-05 s⁻¹ | 
GEKIPAFIPAELKLITKENVQ [n6a] | 2.5e-05 ± 5e-06 s⁻¹ | 0.45 ± 0.09 ×10^7 M^−1 min^−1
GEKIPNAIPAELKLITKENVQ [f7a] | 0.00105 ± 5e-05 s⁻¹ | 3.1 ± 0.1 ×10^7 M^−1 min^−1
GEKIPNFAPAELKLITKENVQ [i8a] | 0.0015 ± 0.00015 s⁻¹ | 8.6 ± 0.9 ×10^7 M^−1 min^−1
GEKIPNFIAAELKLITKENVQ [p9a] | 4e-05 ± 6.7e-06 s⁻¹ | 1.4 ± 0.2 ×10^7 M^−1 min^−1
GEKIPNFIPAALKLITKENVQ [e11a] | 0.000112 ± 8.3e-06 s⁻¹ | 0.46 ± 0.06 ×10^7 M^−1 min^−1
GEKIPNFIPAEAKLITKENVQ [l12a] | 0.00333 ± 0.001 s⁻¹ | 4.3 ± 1.2 ×10^7 M^−1 min^−1
GEKIPNFIPAELKAITKENVQ [l14a] | >0.033 s⁻¹ | 
GEKIPNFIPAELKL [Cd7] | >0.033 s⁻¹ | 
GEKIPNFIPAELKLATKENVQ [i15a] | 0.0183 ± 0.005 s⁻¹ | 25 ± 6 ×10^7 M^−1 min^−1
GEKIPNFIPAELKLI [Cd6] | >0.033 s⁻¹ | 
GEKIPNFIPAELKLIAKENVQ [t16a] | 0.00148 ± 5e-05 s⁻¹ | 7.5 ± 0.3 ×10^7 M^−1 min^−1
GEKIPNFIPAELKLIT [Cd5] | 0.0065 ± 0.00383 s⁻¹ | 11 ± 7 ×10^7 M^−1 min^−1
GEKIPNFIPAELKLITAENVQ [k17a] | 9.5e-05 ± 3.3e-06 s⁻¹ | 1.0 ± 0.1 ×10^7 M^−1 min^−1

Substance | koff | kon (M^−1 min^−1 ) (×10^7)
GEKIPNFIPAELKLITK [Cd4] | 0.00367 ± 0.00033 s⁻¹ | 22 ± 2 ×10^7 M^−1 min^−1
GEKIPNFIPAELKLITKE [Cd3] | 0.002 ± 0.00033 s⁻¹ | 
GEKIPNFIPAELKLITKEN [Cd2] |  | 9.8 ± 0.3 ×10^7 M^−1 min^−1
IANFIPAELKLITKANVQ [Nd3, p5a, e18a] | 0.000967 ± 3.3e-05 s⁻¹ | 9.2 ± 0.4 ×10^7 M^−1 min^−1
IPAELKLITKENVQ [Nd7] | 0.0007 ± 0.000167 s⁻¹ | 1.8 ± 0.4 ×10^7 M^−1 min^−1
IPNFIPAELKLITKENVQ [Nd3] | 0.0002 ± 1.7e-05 s⁻¹ | 8.8 ± 0.3 ×10^7 M^−1 min^−1
KIANFIPAELKLITK [Nd2, Cd4, p5a] | 0.003 ± 0.00017 s⁻¹ | 22 ± 1 ×10^7 M^−1 min^−1
KIANFIPAELKLITKA [Nd2, Cd3, p5a, e18a] | 0.003 ± 0.00017 s⁻¹ | 33 ± 2 ×10^7 M^−1 min^−1
KIANFIPAELKLITKANAA [Nd2, p5a, e18a, v20a, q21a] | 0.000217 ± 1.7e-05 s⁻¹ | 20 ± 1 ×10^7 M^−1 min^−1
KIANFIPAELKLITKE [Nd2, Cd3, p5a] |  | 26 ± 1 ×10^7 M^−1 min^−1
KIPNFIPAELKLITK [Nd2, Cd4] | 0.00132 ± 0.0001 s⁻¹ | 20 ± 2 ×10^7 M^−1 min^−1
KIPNFIPAELKLITKA [Nd2, Cd3, e18a] | 0.000883 ± 3.3e-05 s⁻¹ | 40 ± 2 ×10^7 M^−1 min^−1
KIPNFIPAELKLITKANAA [Nd2, e18a, v20a, q21a] | 0.000383 ± 1.7e-05 s⁻¹ | 3.6 ± 0.3 ×10^7 M^−1 min^−1
KIPNFIPAELKLITKANVQ [Nd2, e18a] | 0.000138 ± 1.67e-05 s⁻¹ | 6.5 ± 0.7 ×10^7 M^−1 min^−1
KIPNFIPAELKLITKE [Nd2, Cd3] | 0.000767 ± 3.3e-05 s⁻¹ | 8.2 ± 0.3 ×10^7 M^−1 min^−1
KIPNFIPAELKLITKENVQ [Nd2] | 5.83e-05 ± 1.3e-05 s⁻¹ | 5.3 ± 1.3 ×10^7 M^−1 min^−1
KLITKENVQ [Nd12] | >0.033 s⁻¹ | 
LITKENVQ [Nd13] | >0.033 s⁻¹ | 
LKLITKENVQ [Nd11] | 0.02 ± 0.01 s⁻¹ | 7.1 ± 3.8 ×10^7 M^−1 min^−1
NFIPAELKLITKENVQ [Nd5] | 0.000933 ± 1.7e-05 s⁻¹ | 9.6 ± 0.1 ×10^7 M^−1 min^−1
PAELKLITKA [Nd8, Cd3, e18a] | >0.033 s⁻¹ | 
PAELKLITKE [Nd8, Cd3] | >0.033 s⁻¹ | 
PAELKLITKENVQ [Nd8] | 0.000917 ± 3.3e-05 s⁻¹ | 9.3 ± 0.3 ×10^7 M^−1 min^−1
PNFIPAELKLITKENVQ [Nd4] | 0.000467 ± 1.7e-05 s⁻¹ | 9.4 ± 0.4 ×10^7 M^−1 min^−1
RIANFIPAELKLITKANVQ [Nd2, k3r, p5a, e18a] | 0.000217 ± 1.7e-05 s⁻¹ | 3.4 ± 0.1 ×10^7 M^−1 min^−1
